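All cell lines were grown in 96-well plates and treated with compound for 48 hours. Abbreviation: GI50, concentration required for 50% inhibition of growth.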 Activity calls are given as the source filed them. Cut-off read from the data, not from the text of the source: active = GI50 up to about 1.1 µM and inactive = higher.
What was measured:
Experiment in all cases: DTP human tumour cell line panel, 48 h
SK-MEL-2 = system: SK-MEL-2
UACC-257 = system: UACC-257
HOP-62 = system: HOP-62
HT-29 = system: HT-29
M14 = system: M14
HCT-116 = system: HCT-116
MOLT-4 = system: MOLT-4
CCRF-CEM = system: CCRF-CEM
NCI-H460 = system: NCI-H460
IGROV-1 = system: IGROV-1
RXF 393 = system: RXF 393
SF-539 = system: SF-539
OVCAR-4 = system: OVCAR-4
SW-620 = system: SW-620
U-251 = system: U-251
MDA-MB-231 = system: MDA-MB-231
OVCAR-3 = system: OVCAR-3
UO-31 = system: UO-31
NCI-H226 = system: NCI-H226
HCC 2998 = system: HCC 2998

Measured: GI50

CC(C)(C)OC(=O)N1C(=O)OC[C@@H]2C=C[C@@H]21
inactive: SK-MEL-2 > 100 µM | UACC-257 > 100 µM | HOP-62 > 100 µM | HT-29 > 100 µM | M14 > 100 µM | HCT-116 > 100 µM | MOLT-4 > 100 µM | CCRF-CEM > 100 µM | NCI-H460 > 100 µM | IGROV-1 > 100 µM | RXF 393 > 100 µM | SF-539 > 100 µM | OVCAR-4 > 100 µM | SW-620 > 100 µM | U-251 > 100 µM | MDA-MB-231 > 100 µM | OVCAR-3 > 100 µM

N#CC1=C(Nc2ccccc2)SC=C(c2ccccc2)N=C1NCc1ccccc1
inactive: SK-MEL-2 > 100 µM | HOP-62 > 100 µM | M14 > 100 µM | HCT-116 > 100 µM | UO-31 71 µM | MOLT-4 72.6 µM | RXF 393 > 100 µM | SF-539 > 100 µM | OVCAR-4 > 100 µM | SW-620 > 100 µM | U-251 > 100 µM | MDA-MB-231 > 100 µM | OVCAR-3 > 100 µM

CC(=O)NNc1nc(-c2ccc([N+](=O)[O-])cc2)c(C#N)c(=O)n1C
inactive: SK-MEL-2 > 100 µM | UACC-257 > 100 µM | HOP-62 26.9 µM | HT-29 99.3 µM | M14 > 100 µM | HCT-116 34.5 µM | UO-31 37.6 µM | MOLT-4 36.8 µM | CCRF-CEM 50.7 µM | NCI-H460 > 100 µM | IGROV-1 16.8 µM | RXF 393 57 µM | SF-539 18.3 µM | OVCAR-4 20.1 µM | SW-620 33.4 µM | U-251 20.8 µM | MDA-MB-231 15.8 µM | OVCAR-3 15.3 µM

Cc1ccc(S(=O)(=O)n2cc(/C=C/C#N)c(-c3cn(S(=O)(=O)c4ccc(C)cc4)cc3-c3cn(S(=O)(=O)c4ccc(C)cc4)cc3/C=C/C#N)c2)cc1
inactive: SK-MEL-2 > 100 µM | UACC-257 > 100 µM | HOP-62 > 100 µM | HT-29 > 100 µM | M14 47 µM | HCT-116 > 100 µM | UO-31 38.4 µM | NCI-H226 > 100 µM | IGROV-1 > 100 µM | OVCAR-4 > 100 µM | MDA-MB-231 18.5 µM | OVCAR-3 > 100 µM

C=CCN1C(=O)C=C(c2ccccc2)n2ncc3cccc1c32
inactive: SK-MEL-2 > 100 µM | UACC-257 > 100 µM | HOP-62 80.4 µM | HT-29 69.2 µM | M14 > 100 µM | HCT-116 > 100 µM | UO-31 > 100 µM | MOLT-4 > 100 µM | CCRF-CEM 67.9 µM | NCI-H226 > 100 µM | IGROV-1 > 100 µM | SF-539 > 100 µM | SW-620 > 100 µM | U-251 > 100 µM | MDA-MB-231 > 100 µM | OVCAR-3 > 100 µM

C[P+](C)(C)C
inactive: SK-MEL-2 > 100 µM | UACC-257 > 100 µM | HCC 2998 > 100 µM | HOP-62 > 100 µM | HT-29 > 100 µM | M14 > 100 µM | HCT-116 > 100 µM | UO-31 > 100 µM | MOLT-4 > 100 µM | CCRF-CEM > 100 µM | NCI-H460 > 100 µM | NCI-H226 > 100 µM | IGROV-1 > 100 µM | RXF 393 > 100 µM | SF-539 > 100 µM | OVCAR-4 > 100 µM | SW-620 > 100 µM | U-251 > 100 µM | OVCAR-3 > 100 µM

O=C1Nc2ccccc2/C1=N/Nc1ncccc1[N+](=O)[O-]
inactive: SK-MEL-2 20.9 µM | UACC-257 23 µM | HOP-62 12.9 µM | HT-29 6.12 µM | M14 16.3 µM | HCT-116 4.92 µM | UO-31 11.6 µM | MOLT-4 48.1 µM | NCI-H460 16.7 µM | NCI-H226 13.6 µM | IGROV-1 2.09 µM | SF-539 2.37 µM | OVCAR-4 19.2 µM | SW-620 8.13 µM | U-251 7.18 µM | MDA-MB-231 86.9 µM | OVCAR-3 6.25 µM

O=S(=O)(O)c1ccc2c(/N=N/c3ccc(Cl)cc3)c(O)ccc2c1
inactive: SK-MEL-2 > 100 µM | UACC-257 > 100 µM | HOP-62 > 100 µM | HT-29 > 100 µM | M14 > 100 µM | HCT-116 > 100 µM | UO-31 > 100 µM | MOLT-4 > 100 µM | CCRF-CEM > 100 µM | IGROV-1 > 100 µM | RXF 393 > 100 µM | OVCAR-4 > 100 µM | SW-620 > 100 µM | U-251 > 100 µM | MDA-MB-231 > 100 µM | OVCAR-3 > 100 µM

O=C(CN1CCNCCN(CC(=O)N2CCCCC2)CCNCC1)N1CCCCC1
inactive: SK-MEL-2 > 100 µM | UACC-257 > 100 µM | HOP-62 > 100 µM | HT-29 18.2 µM | M14 > 100 µM | HCT-116 42.5 µM | UO-31 > 100 µM | MOLT-4 84.7 µM | CCRF-CEM 52.4 µM | NCI-H460 43 µM | NCI-H226 > 100 µM | IGROV-1 33.5 µM | SF-539 > 100 µM | OVCAR-4 > 100 µM | SW-620 58.2 µM | U-251 93.1 µM | MDA-MB-231 > 100 µM | OVCAR-3 > 100 µM

O=C(O)C1CCCN1C(=O)c1cc(Cl)ccn1 (centres undefined)
inactive: SK-MEL-2 > 100 µM | UACC-257 > 100 µM | HCC 2998 > 100 µM | HOP-62 > 100 µM | HT-29 > 100 µM | M14 > 100 µM | HCT-116 > 100 µM | UO-31 > 100 µM | MOLT-4 > 100 µM | CCRF-CEM > 100 µM | NCI-H460 > 100 µM | NCI-H226 > 100 µM | IGROV-1 > 100 µM | RXF 393 > 100 µM | SF-539 > 100 µM | OVCAR-4 > 100 µM | SW-620 > 100 µM | U-251 > 100 µM | OVCAR-3 > 100 µM

CC(=O)Nc1ccc2c(c1)nc1c3ccccc3ccn21
inactive: SK-MEL-2 > 100 µM | UACC-257 > 100 µM | HOP-62 50.6 µM | HT-29 > 100 µM | M14 > 100 µM | HCT-116 55.6 µM | UO-31 90.4 µM | MOLT-4 > 100 µM | CCRF-CEM 27.8 µM | NCI-H460 > 100 µM | NCI-H226 > 100 µM | IGROV-1 > 100 µM | RXF 393 99.1 µM | SF-539 > 100 µM | OVCAR-4 > 100 µM | SW-620 > 100 µM | U-251 > 100 µM | MDA-MB-231 > 100 µM

CCOC(=O)c1cccn1S(=O)(=O)c1cc(Cl)ccc1NC(=O)CC
inactive: SK-MEL-2 53.5 µM | UACC-257 > 100 µM | HOP-62 > 100 µM | HCT-116 40 µM | UO-31 15.4 µM | MOLT-4 47.8 µM | CCRF-CEM > 100 µM | NCI-H460 50.1 µM | IGROV-1 > 100 µM | RXF 393 91 µM | SF-539 > 100 µM | OVCAR-4 60.1 µM | SW-620 > 100 µM | U-251 > 100 µM | MDA-MB-231 39.2 µM | OVCAR-3 > 100 µM
